Source: patent US7470669B2, “Isolated polypeptide comprising a leptin fragment” (Serono Genetics Institute, S.A., priority 1999, dated 2008)

Columns and labels:
LSR [1] = assay: 125I-leptin degradation in PLC cells; type: cell-based, human; conditions: 50 μM
LSR [2] = assay: LSR activity (oleate-induced 125I-LDL binding, uptake, degradation) in primary cultures of rat hepatocytes; type: cell-based; conditions: rat hepatocytes; 50 μM
Experimental: FIGS. 6A, 6B, and 6C show the effect of leptin on ^125I-LDL and ^125I-chylomicron binding to LSR in primary cultures of rat hepatocytes. For FIG. 6A, primary cultures of rat hepatocytes (48 hours after plating) were incubated at 37° C. for 30 min in the absence (□) or presence (▪) of 50 ng/mL leptin in Buffer A, followed by a 20 min incubation at 37° C. with 0.5 mM oleate. The cells were then washed with ice-cold PBS, precooled for 10 min, and then incubated for 1 h at 4° C. with increasing concentrations of ^125I-LDL in Buffer A. Cells were washed, were lysed in 0.1 N NaOH and were counted for radioactivity. Results are shown as the mean of duplicate determinations. For FIG. 6B, primary cultures of rat hepatocytes were incubated at 37° C. for 30 min with or without 20 ng/mL leptin followed by incubation at 37° C. for 4 h with 6 μg protein/mL ^125I-chylomicrons in the absence or presence of 0.5 mM oleate in Buffer A. The cells were then washed and the ^125I-chylomicrons bound to the cell surface were released into the media by incubation with 10 mM suramin. The media was recovered and the radioactivity was measured. Results are shown as the mean±SD of six determinations. Fir FIG. 6C, after incubation at 37° C. for 30 min with 50 ng/mL leptin, the cells were incubated at room temperature for 30 min with 200 μg IgG/mL antibodies directed against rat LSR protein or irrelevant IgG. The amount of ^125I-chylomicrons bound was determined, and results are shown as means±SD of triplicate (irrelevant) or quadruplicate (anti-LSR) determinations.
(§1) FIGS. 7A and 7B show a comparison of the effect of human and mouse leptin on LSR activity in rat hepatocytes and on postprandial increase in plasma TG in db^Pas/db^Pas mice. For FIG. 7A, primary cultures of rat hepatocytes were incubated 30 min at 37° C. without (open bar) or with 10 ng/mL recombinant human (solid bar) or mouse (hatched bar) leptin in Buffer A. Oleate (0.5 mM) and ^125I-LDL (20 μg/mL) were added and the cells were incubated 2 h at 37° C. The media were removed and were analyzed for TCA-soluble degradation products. The mean of duplicate determinations is shown. For FIG. 7B, db^Pas/db^Pas mice were given a test meal as previously described, followed immediately by injection i.p. of saline (open bar, n=4), human leptin (1 μg/animal; solid bar, n=3) or mouse leptin (0.25 μg/animal; hatched bar; n=3). The data represent the difference in TG concentrations measured at t=0 and the average of the concentrations at 3 and 4 hours. Results are shown as mean±SEM.
Cells were incubated 30 min at 37° C. with increasing concentrations of mouse (▪) or human (●) leptin peptide. Following this, 0.5 mM oleate and 20 μg/mL ^125I-LDL were added and the cells were further incubated for 2 h at 37° C. The cells were washed, and the amount of oleate-induced ^125I-LDL bound and degraded was measured as described previously (Bihain, B. E., and Yen, F. T. (1992). Free fatty acids activate a high-affinity saturable pathway for degradation of low-density lipoproteins in fibroblasts from a subject homozygous for familial hypercholesterolemia. Biochemistry 31, 4628-4636).
FIGS. 11A and 11B show the effect of mouse leptin (FIG. 11A) or leptin peptide (FIG. 11B) on postprandial plasma TG response in ob/ob mice. […] Postprandial triglyceridemia was measured as described previously. Each point represents the mean±SEM (A: saline, n=8, leptin, n=7; leptin peptide: saline, n=8, leptin, n=8). […] Primary cultures of rat hepatocytes were incubated 30 min at 37° C. with increasing concentrations of mouse leptin peptide. Oleate (0.5 mM) and ^125I-LDL (20 μg/mL) were added and the cells were incubated 2 h at 37° C. After washing, the amount of 125I-LDL bound to the cell surface was measured as described in the Examples section herein. […]

db^Pas/db^Pas mice = assay: Postprandial plasma TG response after high-fat test meal in db^Pas/db^Pas mice; type: in vivo, mouse; conditions: 1 μg/animal i.p.
Experimental: FIGS. 1A and 1B show the effect of leptin on postprandial plasma TG response in db/db and db^Pas/db^Pas mice. Overnight-fasted db/db (A), db^Pas/db^Pas (B) mice were gavage-fed a high-fat test meal and immediately injected intravenously (db/db) or intraperitoneally (db^Pas/db^Pas) with saline (open symbols) or 50 μg mouse recombinant leptin (closed symbols). At the indicated times, blood was collected from the tail (A) or orbital (B) vein, plasma was separated by centrifugation, and plasma TG concentrations were determined using an enzymatic kit. Each point represents the mean±SEM (db/db: saline, n=4, leptin, n=3; db^Pas/db^Pas: saline, n=6, leptin, n=7). The average plasma lipid response in 10 control C57BL6 mice is shown as a dotted line in both A and B. In a separate experiment, shown as an inset for each strain of mice, overnight fasted db/db (●) or db^Pas/db^Pas (▪) mice were gavage-fed the test meal and immediately injected intravenously with increasing concentrations of leptin. The plasma lipid response was then measured as in A and B. The area under the response curve (AUC) was then calculated using a triangulation method on Microsoft Excel between 0 and 4 hr (mg TG·h/mL). Values are presented as % of control value (test meal alone obtained in A or B). Each point represents the mean of at least 3 mice.
as §1
Mice that were fasted for 2-3 hours were gavage-fed 300 μL of a test meal consisting of 60% fat (37% saturated, 27% mono-, and 36% polyunsaturated fatty acids), 20% protein and 20% carbohydrate, and providing 56 kcal of energy/kg (1.5 g butter, 1.5 g sunflower oil, 2.5 g nonfat dry milk, 2.5 g sucrose and 3 ml water). […] TG concentrations were determined using a commercially available enzymatic kit with controls included in each assay (Precinorm L, Roche-Boehringer Mannheim; Lyotrol N, BioMérieux).

LSR [3] = assay: LSR activity (oleate-induced 125I-LDL binding, uptake, degradation) in PLC cells; type: cell-based, human
Experimental: FIGS. 5A, 5B, 5C, and 5D show the stimulatory effect of leptin on LSR activity in PLC and suppression of this effect by 81B antibody. For FIGS. 5A, 5B, and 5C, cultured PLC cells were incubated at 37° C. for 30 min with increasing concentrations of human recombinant leptin in Buffer A. After this, 0.5 mM oleate and 20 μg/mL ^125I-LDL were added, and cells were further incubated at 37° C. for 2 h. Cells were washed, and the amount of oleate-induced ^125I-LDL bound (5A), internalized (5B) and degraded (5C) were measured. For FIG. 5D, PLC cells were incubated at room temperature for 30 min with 200 μg/mL anti-LSR peptide 81B or 170 antibody, followed by incubation at 37° C. for 30 min without (open bar) or with (hatched bar) 10 ng/mL human leptin. Oleate (0.5 mM) and ^125I-LDL (20 μg/mL) were added, and the monolayers were left at 37° C. for 3 h. After washing, the amount of ^125I-LDL binding was determined, and is shown here as the mean±SD of triplicate determinations.
FIGS. 8A and 8B show the effect of mouse or human leptin on LSR activity in primary cultures of rat hepatocytes or a human liver cell line (PLC). Primary cultured rat hepatocytes were obtained commercially (In Vitro Tech). The PLC cell line was obtained from ATCC repository and maintained in culture. Rat hepatocytes 72 h after plating (8A) or confluent monolayers of PLC (8B) were incubated 30 min at 37° C. with 0 (closed bar) or 10 ng/mL of human (open bar) or mouse (hatched bar) recombinant leptin. Following this, 0.5 mM oleate and 20 μg/mL ^125I-LDL were added and the cells were further incubated for 2 h at 37° C. […] The cells were washed, and the amount of oleate-induced ^125I-LDL bound and degraded was measured as described previously (Bihain, B. E., and Yen, F. T. (1992). Free fatty acids activate a high-affinity saturable pathway for degradation of low density lipoproteins infibroblasts from a subject homozygous for familial hypercholesterolemia. Biochemistry 31, 4628-4636.
FIGS. 35A and 35B show graphs of LSR activity and mRNA expression measured in PLC cells preincubated 24 h with leptin. In FIG. 35A, PLC monolayers were incubated 24 h at 37° C. with (o) or without (n) 200 ng/mL human recombinant leptin. After washing with PBS, cells were incubated 30 min at 37° C. with increasing concentrations of human leptin, followed by a 2 h incubation at 37° C. with 0.8 mM oleate and 20 μg/mL ^125I-LDL. Cells were washed, and the amount of oleate-induced ^125I-LDL binding was measured as described previously. Results are shown as the mean of triplicate determinations. In FIG. 35B, PLC monolayers were incubated 24 h at 37° C. with 0, 200, or 400 ng/mL human recombinant leptin. After washing with PBS, the cells were harvested. Total RNA was prepared from the cell pellets, and Northerns were performed to detect LSR mRNA, using GAPDH probe as loading control as described previously. Northern blots were scanned on the Phosphorimager (Molecular Dynamics, Sunnyvale, Calif.). Densitometric analysis of the images was performed using the software ImageQuant. Results are shown as the amount of LSR signal relative to that of GAPDH (mean±SD, n=3/condition). […]

CCN(CC)CCCC(C)Nc1ccnc2cc(Cl)ccc12 (stereo not shown) [Chloroquine]
increase of the amount of cell-associated 125I-leptin (LSR [1]): 2-4 fold
inhibition of 125I-leptin degradation (LSR [1]): more than 60%

C[C@@H]1C[C@@H]([C@H](O)CC2CC(=O)NC(=O)C2)C(=O)[C@@H](C)C1 [cycloheximide, reference compound]
effect on the stimulatory effect of leptin on LSR activity (LSR [2]): did not suppress the stimulatory effect of leptin

C=C1[C@@H](C)[C@H]2[C@H](Cc3ccccc3)NC(=O)[C@]23OC(=O)/C=C/[C@H](O)CCC[C@@H](C)C/C=C/[C@H]3[C@@H]1O [cytochalasin B, reference compound]
reduction of leptin stimulation of LSR activity (LSR [2]): more than 80%

human leptin: commercial preparation of recombinant human leptin
postprandial plasma TG response (db^Pas/db^Pas mice): slightly reduced
stimulation of LSR activity in human PLC cells (LSR [3]; 10 ng/mL recombinant leptin): more efficient
LSR activity after long-term exposure (LSR [3]; human liver cells (PLC) preincubated 24 h with 200 ng/mL): markedly reduced LSR activity
